Literature values as cited in patent publication US12569529B2, “Natural combination products and methods for regulation of kidney and excretory system function” (Pure Care Pro LLC, priority 2018, dated 2026).

Tests used:
[1] = test system: kidney proximal tubular cells; details: kidney proximal tubular cells in culture

Compound	ADMA levels (patients with CKD)	cisplatin-induced reactive oxygen species (ROS) [1]	cell viability ([1]; cisplatin)
vitamin E	reductions	–	–
Cc1c(C)c2c(c(C)c1O)CC[C@@](C)(CCC[C@H](C)CCC[C@H](C)CCCC(C)C)O2 [α-tocopherol]	–	decreased	increased
